Assay results as given in patent US10463671B2, “Combination therapy for treating cancer” (Epizyme, Inc., priority 2013, dated 2019).

What was measured:
[1] = system: glucocorticoid signaling genes in WSU-DLCL2 cells; test: RT2 Glucocorticoid Signaling PCR array; assay type: cell-based; settings: WSU cell line, 4 days
Procedure: (§1) Gene expression was normalized to array's B2M and fold change compared to DMSO was calculated using the ΔΔCt method.

[2] = system: glucocorticoid signaling genes in DOHH2 cells; test: RT2 Glucocorticoid Signaling PCR array; assay type: cell-based; settings: vs DMSO; DOHH2, 4 days
Procedure: as §1

CCN(c1cc(-c2ccc(CN3CCOCC3)cc2)cc(C(=O)NCc2c(C)cc(C)[nH]c2=O)c1C)C1CCOCC1 [Compound 44]
AK2 Ct Values [1]: 21.365
ANXA4 Ct Values [1]: 24.659
ARID5B Ct Values [1]: 26.126
BCL6 Ct Values [1]: 20.795
CEBPB Ct Values [1]: 26.770
CREB3L4 Ct Values [1]: 24.392
EHD3 Ct Values [1]: 24.270
IL6R Ct Values [1]: 33.814
MT2A Ct Values [1]: 23.499
NFKBIA Ct Values [1]: 23.807
PER2 Ct Values [1]: 24.837
POU2F2 Ct Values [1]: 22.678
RASA3 Ct Values [1]: 23.208
RHOB Ct Values [1]: 27.234
SLC22A5 Ct Values [1]: 26.640
SNTA1 Ct Values [1]: 24.181
SPSB1 Ct Values [1]: 26.952
TNFAIP3 Ct Values [1]: 26.903
TSC22D3 Ct Values [1]: 25.390
ZFP36 Ct Values [1]: 25.541
ZNF2B1 Ct Values [1]: 23.913
RPLP0 Ct Values ([1]; housekeeping gene): 15.681
HPRT1 ΔCT (B2M) ([1]; housekeeping gene, normalized to B2M): 3.108
AMPD3 ΔCT (B2M) ([1]; normalized to B2M): 7.477
GHRHR ΔCT (B2M) ([1]; normalized to B2M): 20.272
GOT1 ΔCT (B2M) ([1]; normalized to B2M): 4.142
SLC10A6 ΔCT (B2M) ([1]; normalized to B2M): 15.999
SLC19A2 ΔCT (B2M) ([1]; normalized to B2M): 6.440
SLC22A5 ΔCT (B2M) ([1]; normalized to B2M): 6.955
ZNF2B1 ΔCT (B2M) ([1]; normalized to B2M): 4.228
B2M ΔCT (B2M) ([1]; normalizer gene, normalized to B2M): 0.000
BCL6 ΔΔCT ([1]; vs DMSO): −0.394
CREB1 ΔΔCT ([1]; vs DMSO): 0.008
CREB3L4 ΔΔCT ([1]; vs DMSO): −0.915
CREB3 ΔΔCT ([1]; vs DMSO): −0.085
DDIT4 ΔΔCT ([1]; vs DMSO): −0.060
GOT1 ΔΔCT ([1]; vs DMSO): 0.708
HNRPLL ΔΔCT ([1]; vs DMSO): −0.037
IL1RN ΔΔCT ([1]; vs DMSO): −4.453
PDP1 ΔΔCT ([1]; vs DMSO): −0.380
PIK3R1 ΔΔCT ([1]; vs DMSO): 0.363
POU2F2 ΔΔCT ([1]; vs DMSO): −0.680
STAT5A ΔΔCT ([1]; vs DMSO): −0.307
USP54 ΔΔCT ([1]; vs DMSO): 0.023
VLDLR ΔΔCT ([1]; vs DMSO): 3.859
FKBP5 ΔΔCT [2]: −0.032
SPSB1 ΔΔCT [2]: −0.025
